Test results as given in PMC6089501 (Journal of Medicinal Chemistry, 2018).
In brackets after ≈: the same amount, converted by molar mass. Like-named read-outs stand apart in the source and are kept apart here.

How the values were obtained:
[1] = tested on: M. tuberculosis H37Rv; assay: microbe, parasite or virus in culture; format: cell-based, Mycobacterium tuberculosis
[2] = microsomes
[3] = female, C57 Black, mouse, in vivo, iv, 3 mg/kg
Method: (§1) Test compound was dosed as a bolus solution intravenously at 3 mg of free base/kilogram (dose volume 5 mL/kg; dose vehicle Saline or 10% DMSO; 40% PEG400; 50% saline) to female C57 Black (n = 3) or dosed orally by gavage as a solution at 10 mg of free base/kilogram (dose volume 10 mL/kg; dose vehicle 10% DMSO; 40% PEG400; 50% distilled water) to female C57 Black (n = 3/dose level). Blood samples were taken from each mouse tail vein at predetermined time points postdose, mixed with two volumes of distilled water, and stored frozen until UPLC/MS/MS analysis. Pharmacokinetic parameters were derived from the blood concentration time curve using PK Solutions software v 2.0 (Summit Research Services, USA).

[4] = tested on: Madin Darby Canine Kidney (MDCK)
[5] = tested on: Vero cells; assay: cells; conditions: Chlorocebus sabaeus, read-out: VERO IC50
Method: (§2) Compounds were solubilized in DMSO and assayed as a 10-point 3-fold serial dilution. Compounds were incubated with cells for 2 days at 37 °C, 5% CO2. CellTiter-Glo Reagent (Promega) was added and relative luminescent units (RLU) measured.

[6] = in vivo; conditions: female, C57 Black, mouse
Method: as §1

[7] = in vitro; conditions: African green monkey, Vero cytotoxicity
Method: as §2

[8] = target: CYP2C9 (Homo sapiens, UniProt P11712); assay: in vitro
Sequence of CYP2C9 (P11712 whole entry): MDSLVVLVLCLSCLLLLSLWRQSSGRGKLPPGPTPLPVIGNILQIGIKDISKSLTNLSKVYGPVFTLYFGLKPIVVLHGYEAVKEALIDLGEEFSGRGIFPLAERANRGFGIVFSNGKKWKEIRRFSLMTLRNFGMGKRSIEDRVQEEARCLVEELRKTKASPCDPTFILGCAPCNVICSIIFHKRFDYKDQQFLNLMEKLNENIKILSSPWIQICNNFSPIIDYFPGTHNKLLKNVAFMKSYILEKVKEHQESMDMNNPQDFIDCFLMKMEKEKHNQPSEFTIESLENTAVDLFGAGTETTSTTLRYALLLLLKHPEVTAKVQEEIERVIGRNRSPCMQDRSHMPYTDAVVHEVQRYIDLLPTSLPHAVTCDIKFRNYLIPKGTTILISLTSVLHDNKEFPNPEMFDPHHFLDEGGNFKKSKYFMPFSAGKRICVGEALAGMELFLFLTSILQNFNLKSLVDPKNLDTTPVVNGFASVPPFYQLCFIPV

[9] = target: CYP2C19 (Homo sapiens, UniProt P33261); assay: in vitro
Sequence of CYP2C19 (P33261 whole entry): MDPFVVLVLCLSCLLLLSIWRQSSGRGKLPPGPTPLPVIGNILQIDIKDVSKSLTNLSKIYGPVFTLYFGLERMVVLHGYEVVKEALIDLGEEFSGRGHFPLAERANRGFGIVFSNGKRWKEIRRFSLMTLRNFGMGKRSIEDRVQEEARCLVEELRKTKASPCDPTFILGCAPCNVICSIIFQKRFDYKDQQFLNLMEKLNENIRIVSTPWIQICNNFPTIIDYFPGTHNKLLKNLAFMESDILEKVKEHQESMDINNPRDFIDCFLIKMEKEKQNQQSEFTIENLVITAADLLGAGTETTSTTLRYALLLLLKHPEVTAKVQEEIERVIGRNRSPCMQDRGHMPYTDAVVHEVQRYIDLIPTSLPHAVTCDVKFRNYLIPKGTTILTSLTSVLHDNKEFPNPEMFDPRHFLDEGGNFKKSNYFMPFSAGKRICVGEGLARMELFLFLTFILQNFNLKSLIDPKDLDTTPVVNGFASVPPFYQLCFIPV

[10] = in vitro; conditions: dog, MDCK-MDR1
[11] = target: CYP 2D6 (Homo sapiens, UniProt P10635); assay: biochemical
Sequence of CYP 2D6 (P10635 whole entry): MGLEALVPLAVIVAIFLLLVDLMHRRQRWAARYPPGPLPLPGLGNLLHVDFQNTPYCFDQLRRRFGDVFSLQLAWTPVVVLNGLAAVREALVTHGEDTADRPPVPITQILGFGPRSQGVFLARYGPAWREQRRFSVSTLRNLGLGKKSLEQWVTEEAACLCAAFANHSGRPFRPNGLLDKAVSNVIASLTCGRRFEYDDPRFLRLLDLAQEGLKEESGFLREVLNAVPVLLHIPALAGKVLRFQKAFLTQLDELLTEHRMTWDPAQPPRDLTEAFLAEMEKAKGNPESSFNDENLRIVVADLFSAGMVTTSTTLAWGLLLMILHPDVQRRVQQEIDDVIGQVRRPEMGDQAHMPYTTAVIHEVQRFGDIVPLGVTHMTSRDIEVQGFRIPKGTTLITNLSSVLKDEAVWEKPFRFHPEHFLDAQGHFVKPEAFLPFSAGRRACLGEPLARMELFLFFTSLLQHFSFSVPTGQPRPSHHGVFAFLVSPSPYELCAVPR

[12] = target: T1, CYP 1A2 (Homo sapiens, UniProt P05177); assay: CYP inhibition 1A2
T1 sequence (P05177 1-516): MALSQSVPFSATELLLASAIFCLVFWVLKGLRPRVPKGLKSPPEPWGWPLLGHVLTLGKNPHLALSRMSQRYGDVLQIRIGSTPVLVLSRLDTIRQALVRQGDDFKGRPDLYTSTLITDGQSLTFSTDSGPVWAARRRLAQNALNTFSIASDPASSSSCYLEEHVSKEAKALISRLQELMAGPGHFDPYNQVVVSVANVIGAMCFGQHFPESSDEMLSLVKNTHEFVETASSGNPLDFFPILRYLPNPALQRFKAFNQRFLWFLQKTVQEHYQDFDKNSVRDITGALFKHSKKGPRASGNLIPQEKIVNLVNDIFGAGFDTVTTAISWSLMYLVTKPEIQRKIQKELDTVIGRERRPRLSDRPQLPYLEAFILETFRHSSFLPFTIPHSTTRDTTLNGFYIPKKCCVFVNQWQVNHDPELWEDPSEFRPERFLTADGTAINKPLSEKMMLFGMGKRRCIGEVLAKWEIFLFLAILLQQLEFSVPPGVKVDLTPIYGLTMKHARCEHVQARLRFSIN

NC(=O)c1sc(N2CCOCC2)cc1OCCc1ccccc1 [Compound 1, 5-Morpholino-3-phenethoxythiophene-2-carboxamide] showed an MIC ([1]; Mycobacterium tuberculosis, H37RV, read-out: H37Rv MIC) of 0.13 µg/mL, an MIC90 ([1]; Mycobacterium tuberculosis, H37RV, read-out: MIC (MIC90)) of 0.72 µM (≈ 0.239 µg/mL) and an MIC ([1]; Mycobacterium tuberculosis, H37RV, read-out: MIC WT) of 1.3 µM. For the same molecule, the IC90 ([1]; Mycobacterium tuberculosis, H37RV, read-out: TB-IC90_OD GEOM_MEAN) was 0.608 µM, the “MIC (H37RvLP)” value ([1]; n = 14) was 0.72 ± 0.30 (n = 14) and the Cli mouse (female, CD1, mouse, pH 7.4) was 19 mL.min^–1.g^–1. The “scaled Clpre” value (female, CD1, mouse, pH 7.4) was 81 mL/min/kg, the “CL mouse MEAN” value (mouse, microsomes) was 18.63 mL/min/g and the “Microsomal clearance, Mouse” value (mouse, microsomes) was “Mouse = 19 mL·min^−1·g^−1”. For the same molecule, the “in vitro mouse Clint” value (mouse, microsomes) was 19 mL/min/g, the “Microsomal clearance, Human” value [2] was “Human = 3.5 mL·min^−1·g^−1” and the CLB [3] was 10 mL/min/kg. The T1/2 [3] was 42 min, the “P-glycoprotein (P-gp) efflux (in words)” value ([4]; MDCK-MDR1) was “no likely P-glycoprotein (P-gp) efflux issues” and the “permeability (in words)” value ([4]; MDCK-MDR1) was “good permeability”. The “P-gp Efflux B→ A/A → B” value ([4]; dog, MDCK) was 0.8, the IC50 [5] was over 100 µM and the AUC ([6]; iv, 3 mg/kg) was 4830 ng·h/mL. For the same molecule, the bioavailability ([6]; po, 10 mg/kg) was 0.5%, the IC50 [7] was over 100 µM and the IC50 [8] was 7.94 µM. It also gave an IC50 [9] of 1.26 µM, a Papp A→B [10] of 45 ×10⁻⁶ cm/s and a Papp B→A [10] of 37 ×10⁻⁶ cm/s. For the same molecule, the IC50 [11] was 10 µM and the IC50 [12] was over 10 µM.
